Assay results published in PMC6178849, “Activation of Glutathione Peroxidase 4 as a Novel Anti-inflammatory Strategy” (Frontiers in Pharmacology, 2018).

Target: T1, glutathione peroxidase 4 (hGPX4-C) (Homo sapiens, UniProt P36969, U73C)
T1 construct: gene GPX4; human cytosolic GPX4 (c-GPX4), his-tagged, expressed in E. coli M15
Assay: activation of purified GPX4 in a glutathione reductase/NADPH coupled assay; Tm shift about […]°C; D23A mutant loses activation; CETSA in HEK293T cells
Assay type: biochemical
Settings: read-out: % (maximum activation)

T1 sequence (P36969 other isoform, or with tags, fused parts or gaps U73C): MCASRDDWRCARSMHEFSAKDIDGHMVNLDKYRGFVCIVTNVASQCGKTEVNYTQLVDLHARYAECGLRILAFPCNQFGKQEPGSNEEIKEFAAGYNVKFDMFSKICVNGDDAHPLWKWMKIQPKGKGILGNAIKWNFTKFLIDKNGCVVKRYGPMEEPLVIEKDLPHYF

NC1=NC2(O)C(=O)c3ccccc3C2(O)N1 (stereo not shown) [compound 102, PKUMDL-LC-102]
Emax: 236%
